According to article PMC9492542, “Brain-restricted mTOR inhibition with binary pharmacology” (Nature, 2022):
Values joined by “and” are separate entries in the source; they are usually repeats but may differ in a detail not shown here. Equal values may be shown once.

Legend:
[1] = system: U87MG; test: Orthotopic intracranial U87MG-luciferase glioblastoma xenograft; conditions: U87MG-Luc
[2] = system: GBM43; test: Orthotopic intracranial GBM43-luciferase patient-derived glioblastoma xenograft; conditions: GBM43-Luc
[3] = system: K562 CRISPRi cells; test: Cell viability assay (CellTiter-Glo, 72 h) in K562 CRISPRi cells with sgRNA knockdown of FKBP12
Protocol: Knockdown cells were generated by transducing K562 CRISPRi (sgRNA^–) cells with the sgRNA expression vectors at a multiplicity of infection of less than 1 (20–40% transduction rate) with 8 μg ml^–1 polybrene.
Cells were seeded into 96-well white flat bottom plates (1,000 cells per well) (Corning) and incubated overnight. […] Cell viability was assessed using a commercial CellTiter-Glo (CTG) luminescence-based assay (Promega). In brief, the 96-well plates were equilibrated to room temperature before the addition of diluted CTG reagent (100 μl) (1:4 CTG reagent:PBS). Plates were placed on an orbital shaker for 30 min before recording luminescence using a Spark 20M (TECAN) plate reader.

[4] = system: mTOR; test: Immunoblot analysis of mTOR signalling (p-S6, p-4EBP1) in MCF7 cells, incl. screen for blocking of rapamycin/RapaLink-1
[5] = individual mice, listed as RL-1

CO[C@H]1C[C@@H]2CC[C@@H](C)[C@@](O)(O2)C(=O)C(=O)N2CCCC[C@H]2C(=O)O[C@H]([C@H](C)C[C@@H]2CC[C@@H](OCCOCc3cn(CCOCCOCCOCCOCCOCCOCCOCCOCCC(=O)NCCCCn4nc(-c5ccc6oc(N)nc6c5)c5c(N)ncnc54)nn3)[C@H](OC)C2)CC(=O)[C@H](C)/C=C(\C)[C@@H](O)[C@@H](OC)C(=O)[C@H](C)C[C@H](C)/C=C/C=C/C=C/1C [RapaLink-1]
Tumor size (measured by bioluminescence) ([1]; day 5, individual mice): 1460000 and 640000 and 1800000 and 5970000 and 155000 and 7230000
Mouse weight ([1]; day 10, individual mice): 26.1 g and 22.4 g (2×) and 20.7 g and 22.7 g and 21.8 g
Tumor size (measured by bioluminescence) ([1]; day 10, individual mice): 3420000 and 1030000 and 12000000 and 3100000 and 5850000 and 4400000
Mouse weight ([1]; day 15, individual mice): 25.2 g and 22 g and 20.3 g and 23.7 g and 23.4 g and 21.9 g
Tumor size (measured by bioluminescence) ([1]; day 15, individual mice): 11100000 and 3790000 and 12200000 and 19000000 and 408000 and 7800000
Mouse weight ([1]; day 20, individual mice): 26.4 g and 22.6 g and 21.3 g and 25.8 g and 23.9 g and 23.3 g
Tumor size (measured by bioluminescence) ([1]; day 20, individual mice): 53600000 and 17300000 and 32400000 and 53200000 and 63600000 and 11500000
Mouse weight ([1]; day 25, individual mice): 22.4 g and 22.3 g and 20.3 g and 24.8 g and 21.6 g and 23.4 g
Tumor size (measured by bioluminescence) ([1]; day 25, individual mice): 605000000 and 412000000 and 640000000 and 201000000 and 1240000000 and 128000000
Tumor size (measured by bioluminescence) ([1]; day 30, individual mice): 1100000000 and 366000000 and 814000000 and 167000000
Mouse survival [1, 5]: 32 days and 30 days and 41 days and 40 days
Mouse weight ([2]; day 0, individual mice): 23.5 g and 21.9 g and 22.3 g and 22.1 g and 19.3 g and 21.6 g
Tumor size (measured by bioluminescence) ([2]; day 0, individual mice): 9520000 and 3020000 and 1670000 and 519000 and 248000 and 80200
Mouse weight ([2]; day 4, individual mice): 22.9 g and 20.8 g and 22.2 g (2×) and 23.1 g and 20.1 g
Tumor size (measured by bioluminescence) ([2]; day 4, individual mice): 1310000 and 940000 and 1040000 and 482000 and 175000 and 141000
Mouse weight ([2]; day 7, individual mice): 22.7 g and 19.8 g and 21.2 g and 20.8 g and 19.6 g and 22.9 g
Tumor size (measured by bioluminescence) ([2]; day 7, individual mice): 121000000 and 131000000 and 102000000 and 25200000 and 4850000
Mouse weight ([2]; day 10, individual mice): 20.5 g and 20.2 g and 21.6 g and 20.6 g and 19.4 g and 22 g
Tumor size (measured by bioluminescence) ([2]; day 10, individual mice): 686000000 and 671000000 and 515000000 and 1100000000 and 3050000000 and 2140000
Mouse survival [2, 5]: 17 days and 18 days and 19 days
cell growth (K562-dCas9-KRAB) ([3]; FKBP12 sgRNA-1, 0.0152416 nM): 105.506 and 102.628 and 96.1562
cell growth (K562-dCas9-KRAB) ([3]; FKBP12 sgRNA-1, 0.0457247 nM): 105.668 and 102.078 and 85.8686
cell growth (K562-dCas9-KRAB) ([3]; FKBP12 sgRNA-1, 1.23457 nM): 94.9833 and 94.8438 and 86.0533
cell growth (K562-dCas9-KRAB) ([3]; FKBP12 sgRNA-1, 3.7037 nM): 89.3098 and 83.2596 and 72.1854
cell growth (K562-dCas9-KRAB) ([3]; FKBP12 sgRNA-1, 11.1111 nM): 53.7829 and 50.941 and 46.1745
cell growth (K562-dCas9-KRAB) ([3]; FKBP12 sgRNA-1, 33.3333 nM): 28.0164 and 26.1284 and 21.6828
cell growth (K562-dCas9-KRAB) ([3]; FKBP12 sgRNA-2, 0.0152416 nM): 97.2191 and 100.632 and 101.126
cell growth (K562-dCas9-KRAB) ([3]; FKBP12 sgRNA-2, 0.0457247 nM): 97.7063 and 99.4263 and 97.7491
cell growth (K562-dCas9-KRAB) ([3]; FKBP12 sgRNA-2, 0.137174 nM): 95.7095 and 97.9482 and 99.6852
cell growth (K562-dCas9-KRAB) ([3]; FKBP12 sgRNA-2, 1.23457 nM): 93.7321 and 94.186 and 93.5157
cell growth (K562-dCas9-KRAB) ([3]; FKBP12 sgRNA-2, 3.7037 nM): 38.5541 and 41.9621 and 38.7138
cell growth (K562-dCas9-KRAB) ([3]; FKBP12 sgRNA-2, 11.1111 nM): 19.9055 and 20.364 and 21.1046
cell growth (K562-dCas9-KRAB) ([3]; FKBP12 sgRNA-2, 33.3333 nM): 15.1403 and 14.2518 and 15.8
cell growth (K562-dCas9-KRAB) ([3]; GAL4-4 sgRNA, 0.0152416 nM): 101.863 and 99.8606 and 100.119
cell growth (K562-dCas9-KRAB) ([3]; GAL4-4 sgRNA, 0.0457247 nM): 103.056 and 100.129 and 98.9614
cell growth (K562-dCas9-KRAB) ([3]; GAL4-4 sgRNA, 0.137174 nM): 97.8709
cell growth (K562-dCas9-KRAB) ([3]; GAL4-4 sgRNA, 1.23457 nM): 71.632 and 70.4313 and 67.4428
cell growth (K562-dCas9-KRAB) ([3]; GAL4-4 sgRNA, 3.7037 nM): 17.746 and 15.8338 and 15.2774
cell growth (K562-dCas9-KRAB) ([3]; GAL4-4 sgRNA, 11.1111 nM): 13.9448 and 13.723 and 15.0323
cell growth (K562-dCas9-KRAB) ([3]; GAL4-4 sgRNA, 33.3333 nM): 13.6321 and 13.22 and 14.5715
cellular activity after CRISPRi knockdown of FKBP12 ([3]; K562 dCas9-KRAB, two sgRNAs): drastically impeded its cellular activity
cell growth (K562-dCas9-KRAB) ([3]; No sgRNA + 10 μM FK506, 0.0152416 nM): 90.7304 and 95.49 and 92.3837
cell growth (K562-dCas9-KRAB) ([3]; No sgRNA + 10 μM FK506, 0.0457247 nM): 91.7724 and 93.2742 and 91.026
cell growth (K562-dCas9-KRAB) ([3]; No sgRNA + 10 μM FK506, 0.137174 nM): 91.4157 and 89.1222 and 88.9009
cell growth (K562-dCas9-KRAB) ([3]; No sgRNA + 10 μM FK506, 1.23457 nM): 91.763 and 90.0617 and 88.7417
cell growth (K562-dCas9-KRAB) ([3]; No sgRNA + 10 μM FK506, 3.7037 nM): 89.7918 and 91.174 and 89.4532
cell growth (K562-dCas9-KRAB) ([3]; No sgRNA + 10 μM FK506, 11.1111 nM): 86.3008 and 85.9782 and 86.561
cell growth (K562-dCas9-KRAB) ([3]; No sgRNA + 10 μM FK506, 33.3333 nM): 70.168 and 69.6522 and 67.2473
cell growth (K562-dCas9-KRAB) ([3]; No sgRNA, 0.0152416 nM): 98.221 and 102.996 and 99.7082
cell growth (K562-dCas9-KRAB) ([3]; No sgRNA, 0.0457247 nM): 104.804 and 96.4373 and 102.095
cell growth (K562-dCas9-KRAB) ([3]; No sgRNA, 0.137174 nM): 98.0154 and 97.5628 and 102.366
cell growth (K562-dCas9-KRAB) ([3]; No sgRNA, 1.23457 nM): 69.0104 and 68.6714 and 68.1063
cell growth (K562-dCas9-KRAB) ([3]; No sgRNA, 3.7037 nM): 15.0031 and 16.0719 and 14.3485
cell growth (K562-dCas9-KRAB) ([3]; No sgRNA, 11.1111 nM): 13.4023 and 12.2624 and 12.6642
cell growth (K562-dCas9-KRAB) ([3]; No sgRNA, 33.3333 nM): 12.1483 and 12.1908 and 11.8583
phospho-S6 (S240/244) and phospho-4EBP (T37/46) levels ([4]; MCF7, 10 nM RapaLink-1): almost undetectable levels
phospho-S6 (S240/244) and phospho-4EBP (T37/46) levels ([4]; MCF7, 10 nM RapaLink-1 + 10 µM FK506): showed no effect on either marker
